Values after ≈ are worked out from the molar mass of the structure shown.
Key:
Type in all cases: cell-based
[1] = test system: Aspergillus flavus; test: MIC, RPMI medium; details: Aspergillus flavus, MIC banded into grades, read-out: MIC grade, A. flavus
Experimental: (§1) Between 1 and 5 mgs of compound were accurately weighed out into a sterile Eppendorf tube. The compound was dissolved in DMSO to give a solution containing 5 mg/mL. Tubes were stored at −20° C. until required.
(§2) On the day of testing thawed solutions were vortex mixed to ensure homogeneity. 30 μL of solution was removed and added to 570 μL of sterile water in a separate sterile Eppendorf. The thoroughly mixed solution was used to prepare a series of doubling dilutions in water, in a deep well plate. Thirteen replicate plates were prepared using a Minitrak by aspirating 20 μL from each well into eleven clear polystyrene 96 well plates.
(§3) Assays were also performed in RPMI medium for both Aspergillus spp. (strains described above) and Candida spp. (Candida albicans, Candida glabrata, Candida krusei, Candida parapsilosis and Candida tropicalis). To perform MIC tests in this medium, dilutions of compounds are prepared in microtitre plates as described above. Fungal strains to be tested are grown and harvested in an identical manner to that described above, and each organism suspension was diluted in RPMI medium, containing 2% glucose and 0.135 M MOPS buffer (pH 7.0) to 0.5-2×10^4 cfu/mL, rather than in YAG medium. 80 μL of an organism suspension was added to each well of the plate containing drug dilutions.
(§4) This produced MIC plates with a drug range 50-0.05 mg/L and organism inocula of 1−2×10^4 cfu/mL. All plates were incubated for 24-48 h at 35° C. Growth was assessed by monitoring the optical density at 485 nm for each well. The MIC of a compound is the lowest drug concentration that inhibits growth of an organism by >80% compared with a drug free control.
(§5) The following organisms were tested: Aspergillus flavus, Aspergillus fumigatus AF293 and AF210, Aspergillus niger, Aspergillus terreus AT4 and AT49, Candida albicans, Candida glabrata, Candida krusei, Candida parapsilosis and Candida tropicalis.

[2] = test system: Aspergillus fumigatus AF210; test: MIC, RPMI medium; details: Aspergillus fumigatus, AF210, MIC banded into grades, read-out: MIC grade, A. fumigatus 210
Experimental: as §1, §2, §3, §4, §5

[3] = test system: Aspergillus niger; test: MIC, RPMI medium; details: Aspergillus niger, MIC banded into grades, read-out: MIC grade, A. niger
Experimental: as §1, §2, §3, §4, §5

[4] = test system: Aspergillus fumigatus AF293; test: MIC, RPMI medium; details: Aspergillus fumigatus, AF293, MIC banded into grades, read-out: MIC grade, A. fumigatus
Experimental: as §1, §2, §3, §4, §5

[5] = test system: Aspergillus terreus AT49; test: MIC, RPMI medium; details: Aspergillus terreus, AT49, MIC banded into grades, read-out: MIC grade, A. terreus 49
Experimental: as §1, §2, §3, §4, §5

[6] = test system: Aspergillus terreus AT4; test: MIC, RPMI medium; details: Aspergillus terreus, AT4, MIC banded into grades, read-out: MIC grade, A. terreus
Experimental: as §1, §2, §3, §4, §5

[7] = test system: Aspergillus flavus; test: MIC, YAG medium; details: Aspergillus flavus, 24 h, 24 h at 35° C, MIC banded into grades, read-out: MIC grade, A. flavus
Experimental: as §1, §2
(§6) Spores of Aspergillus spp. (Aspergillus fumigatus [two strains], Aspergillus terreus [two strains], Aspergillus niger and Aspergillus flavus) were harvested from cultures grown on Sabarauds agar for 5 days, and resuspended in PBS/Tween 80 to approx 1×10^7 cfu/mL. Each organism suspension was diluted in YAG medium (1% glucose, 1% ammonium chloride and 0.5% yeast extract) to 0.5−2×10^4 cfu/mL. 80 μL of an organism suspension was added to each well of the plate containing drug dilutions.
as §4, with “cfu/mL for Aspergillus spp.” for “cfu/mL.”, “24” for “24-48”, “>70%” for “>80%”, “control. MICs are recorded as mg/L. In cases where the MIC of an organism is […] mg/L the MIC is repeated using a concentration range of 0.5-0.0005 mg/L.” for “control.”
as §5

[8] = test system: Aspergillus fumigatus AF210; test: MIC, YAG medium; details: Aspergillus fumigatus, 24 h at 35° C, MIC banded into grades, read-out: MIC grade, A. fumigatus 210
Experimental: as §1, §2, §6
as §4, with “cfu/mL for Aspergillus spp.” for “cfu/mL.”, “24” for “24-48”, “>70%” for “>80%”, “control. MICs are recorded as mg/L. In cases where the MIC of an organism is […] mg/L the MIC is repeated using a concentration range of 0.5-0.0005 mg/L.” for “control.”
as §5

[9] = test system: Aspergillus niger; test: MIC, YAG medium; details: Aspergillus niger, 24 h at 35° C, MIC banded into grades, read-out: MIC grade, A. niger
Experimental: as §1, §2, §6
as §4, with “cfu/mL for Aspergillus spp.” for “cfu/mL.”, “24” for “24-48”, “>70%” for “>80%”, “control. MICs are recorded as mg/L. In cases where the MIC of an organism is […] mg/L the MIC is repeated using a concentration range of 0.5-0.0005 mg/L.” for “control.”
as §5

[10] = test system: Aspergillus fumigatus AF293; test: MIC, YAG medium; details: Aspergillus fumigatus, 24 h at 35° C, MIC banded into grades, read-out: MIC grade, A. fumigatus
Experimental: as §1, §2, §6
as §4, with “cfu/mL for Aspergillus spp.” for “cfu/mL.”, “24” for “24-48”, “>70%” for “>80%”, “control. MICs are recorded as mg/L. In cases where the MIC of an organism is […] mg/L the MIC is repeated using a concentration range of 0.5-0.0005 mg/L.” for “control.”
as §5

[11] = test system: Aspergillus terreus AT49; test: MIC, YAG medium; details: Aspergillus terreus, 24 h at 35° C, MIC banded into grades, read-out: MIC grade, A. terreus 49
Experimental: as §1, §2, §6
as §4, with “cfu/mL for Aspergillus spp.” for “cfu/mL.”, “24” for “24-48”, “>70%” for “>80%”, “control. MICs are recorded as mg/L. In cases where the MIC of an organism is […] mg/L the MIC is repeated using a concentration range of 0.5-0.0005 mg/L.” for “control.”
as §5

[12] = test system: Aspergillus terreus AT4; test: MIC, YAG medium; details: Aspergillus terreus, 24 h at 35° C, MIC banded into grades, read-out: MIC grade, A. terreus
Experimental: as §1, §2, §6
as §4, with “cfu/mL for Aspergillus spp.” for “cfu/mL.”, “24” for “24-48”, “>70%” for “>80%”, “control. MICs are recorded as mg/L. In cases where the MIC of an organism is […] mg/L the MIC is repeated using a concentration range of 0.5-0.0005 mg/L.” for “control.”
as §5

Structure (SMILES)	MIC [1] [µg/mL]	MIC [2] [µg/mL]	MIC [3] [µg/mL]	MIC [4] [µg/mL]	MIC [5] [µg/mL]	MIC [6] [µg/mL]	MIC [7] [µg/mL]	MIC [8] [µg/mL]	MIC [9] [µg/mL]	MIC [10] [µg/mL]	MIC [11] [µg/mL]	MIC [12] [µg/mL]
Cc1cc(C)nc(N2CCN(c3ccc(NC(=O)C(=O)c4ccc(C)[nH]4)cc3)CC2)c1 [Example 4, N-{4-[4-(4,6-Dimethyl-pyridin-2-yl)-piperazin-1-yl]-phenyl}-2-(5-methyl-1H-pyrrol-2-yl)-2-oxo-acetamide]	> 10	> 10	> 10	> 10	> 10	> 10	1 to 10 (≈ 2.4 to 24 µM)	1 to 10 (≈ 2.4 to 24 µM)	1 to 10 (≈ 2.4 to 24 µM)	1 to 10 (≈ 2.4 to 24 µM)	1 to 10 (≈ 2.4 to 24 µM)	> 10
Cc1cc(C)nc(N2CCN(c3ccc(NC(=O)C(=O)c4c(-c5ccccc5)cc5n4CCN(C)C5)cc3)CC2)c1 [Example 5, N-{4-[4-(4,6-Dimethyl-pyridin-2-yl)-piperazin-1-yl]-phenyl}-2-(2-methyl-7-phenyl-1,2,3,4-tetrahydro-pyrrolo[1,2-a]pyrazin-6-yl)-2-oxo-acetamide]	1 to 10 (≈ 1.82 to 18.2 µM)	1 to 10 (≈ 1.82 to 18.2 µM)	1 to 10 (≈ 1.82 to 18.2 µM)	1 to 10 (≈ 1.82 to 18.2 µM)	< 1	< 1	1 to 10 (≈ 1.82 to 18.2 µM)	< 1	1 to 10 (≈ 1.82 to 18.2 µM)	< 1	< 1	< 1
Cc1cc(C)nc(N2CCN(c3ccc(NC(=O)C(=O)c4c(-c5ccccc5)cc5n4CCC5)cc3)CC2)c1 [Example 6, N-{4-[4-(4,6-Dimethyl-pyridin-2-yl)-piperazin-1-yl]-phenyl}-2-oxo-2-(2-phenyl-6,7-dihydro-5H-pyrrolizin-3-yl)-acetamide]	< 1	< 1	< 1	< 1	< 1	< 1	< 1	< 1	< 1	< 1	< 1	< 1
Cc1cc(C)nc(N2CCN(c3ccc(NC(=O)C(=O)c4c(-c5ccccc5)cc5n4CCOC5)cc3)CC2)c1 [Example 7, N-{4-[4-(4,6-Dimethyl-pyridin-2-yl)-piperazin-1-yl]-phenyl}-2-oxo-2-(7-phenyl-3,4-dihydro-1H-pyrrolo[2,1-c][1,4]oxazin-6-yl)-acetamide]	< 1	< 1	< 1	< 1	< 1	< 1	< 1	< 1	< 1	< 1	< 1	< 1
Cc1cc(C)nc(N2CCN(c3ccc(NC(=O)C(=O)c4c(-c5ccccc5)cc(C)n4C(C)C)cc3)CC2)c1 [Example 8, N-{4-[4-(4,6-Dimethyl-pyridin-2-yl)-piperazin-1-yl]-phenyl}-2-(1-isopropyl-5-methyl-3-phenyl-1H-pyrrol-2-yl)-2-oxo-acetamide]	> 10	1 to 10 (≈ 1.87 to 18.7 µM)	1 to 10 (≈ 1.87 to 18.7 µM)	1 to 10 (≈ 1.87 to 18.7 µM)	1 to 10 (≈ 1.87 to 18.7 µM)	1 to 10 (≈ 1.87 to 18.7 µM)	1 to 10 (≈ 1.87 to 18.7 µM)	< 1	< 1	< 1	1 to 10 (≈ 1.87 to 18.7 µM)	1 to 10 (≈ 1.87 to 18.7 µM)

Reference: patent US8993574B2, “Pyrrole antifungal agents” (F2G Ltd, priority 2008, dated 2015)
